Data on four compounds can be found in patent US5712298A, “Fluoroalkoxy-substituted benzamides and their use as cyclic nucleotide phosphodiesterase inhibitors” (BYK Gulden Lomberg Chemische Fabrik GmbH, priority 1993, dated 1998).

The subject of one test is PDE IV. Description: Inhibition of PDE IV activity. The test is classed as biochemical.
The next test deals with conscious guinea-pigs. Description: Effect on dyspnoea and migration of proinflammatory cells into the airway lumen after allergic reaction of conscious guinea-pigs. The format is in vivo, guinea-pig. The settings on record: 30 μmol/kg p.o. The text has this: 2. Effect of dyspnoea and migration of proinflammatory (immunocompetent) cells from the blood vessels into the airway lumen after allergic reaction of conscious guinea-pigs
Immunocompetent blood cells (leucocytes) appear in the airway lumens under the influence of allergic, inflammatory reactions. This pathological migration can support itself, i.e. lead to chronic changes, and plays an important part as a pathological mechanism of chronic airway obstruction (of asthma) but also of allergic rhinitis and/or conjunctivitis. The inhibition of the migration by pharmaceuticals is an important therapeutic principle and is a measure of antiallergic or antiinflammatory actions.
The experimental animal methodology employed for the measurement of the acute effect of an allergic reaction on respiration and cell migration itself essentially follows the descriptions of P. A. Hutson et al. (Am. Rev. Respir. Dis., 137, 548, 1988) and J. P. Tarayre et al. (J. Parmacol. Meth., 23, 13, 1990) and also R. Beume et al. (Atemw. Lungenkrkh., 11, 324, 1985).
A defined guinea-pig collective is sensitized intraperitoneally to ovalbumin (20 μg+20 mg of Al(OH)3). 14 days later, the animals are tested:
0 h provocation of the allergic reaction, thoracographic latency time measurement until occurrence of dyspnoea, non-occurrence=protective action.
+24 h anaesthesia and bronchoalveolar lavage: Determination of the total cell number, counting of the differential cell picture in the lavage, determination of the protein content in the cell-free supernatant of the lavage.
The controlled used in each case was 1 random sample of sensitized animals: Placebo treatment+sham provocation or placebo treatment+provocation.
The compound of Example 1 (=compound 1), 30 μmol/kg p.o., acts on the parameters of this relation as follows: […]

Where [1] appears, read: bronchoalveolar lavage +24 h after provocation.
[2] abbreviates: cell-free supernatant of lavage +24 h after provocation.

In the case of `COc1cc(C(=O)Nc2c(Cl)cncc2Cl)ccc1OC(F)F` [Compound 1, N-(3,5-Dichloropyrid-4-yl)-4-difluoromethoxy-3-methoxybenzamide], the “-log IC50” value in the test with PDE IV came out at 8.64. The “Passage of cells and protein after provocation” value with conscious guinea-pigs (base values = placebo + sham provocation) is recorded as “inhibits these passages to base values”. In the test with conscious guinea-pigs (setting [1]), the “Eosinophilic granulocytes, median” value was 1.2 × 10^6 /10 ml; the “Eosinophilic granulocytes, median: bracketed value (relative to placebo + sham provocation = 1)” value came out at 1.5; the “Eosinophilic granulocytes, min./max.” value is listed as 0.6-2.5 × 10^6 /10 ml; the “Macrophages, median” value is on record as 1.2 × 10^6 /10 ml. In addition, in the test with conscious guinea-pigs (setting [1]), the “Macrophages, median: bracketed value (relative to placebo + sham provocation = 1)” value is recorded as 0.8; the “Macrophages, min./max.” value is listed as 0.9-2.3 × 10^6 /10 ml; the “Neutrophilic granulocytes, median” value is 0.0 × 10^6 /10 ml; the “Neutrophilic granulocytes, median: bracketed value (relative to placebo + sham provocation = 1)” value is given as 0. Further, in the test on conscious guinea-pigs (setting [1]), the “Neutrophilic granulocytes, min./max.” value was 0.0-0.08 × 10^6 /10 ml; the “Total leucocytes, median” value is 2.5 × 10^6 /10 ml; the “Total leucocytes, median: bracketed value (relative to placebo + sham provocation = 1)” value is 1.1; the “Total leucocytes, min./max.” value is listed as 1.5-4.2 × 10^6 /10 ml. In the test with conscious guinea-pigs (setting [2]), the “Protein content, median” value is listed as 4.1 mg/10 ml; the “Protein content, median: bracketed value (relative to placebo + sham provocation = 1)” value amounted to 1.1; the “Protein content, min./max.” value is 2.6-11.0 mg/10 ml. In addition, in the test on conscious guinea-pigs (ovalbumin provocation, N = 14, non-occurrence of dyspnoea = protective action), the “N, of which protected” value came out at 8 animals.
For the compound `O=C(Nc1c(Cl)cncc1Cl)c1ccc(OC(F)F)c(OC(F)F)c1` [Compound 2, N-(3,5-Dichloropyrid-4-yl)-3,4-bis-difluoromethoxybenzamide], in the test on PDE IV, the “-log IC50” value turned out to be 8.42.
Same read-out and setting: then `O=C(Nc1c(Cl)cncc1Cl)c1ccc(OC(F)F)c(OCC2CCC2)c1` [Compound 3, N-(3,5-Dichloropyrid-4-yl)-3-cyclobutylmethoxy-4-difluoromethoxybenzamide], with 8.74; and `O=C(Nc1c(Cl)cncc1Cl)c1ccc(OC(F)F)c(OC2CCCC2)c1` [Compound 4, N-(3,5-Dichloropyrid-4-yl)-3-cyclopentyloxy-4-difluoromethoxybenzamide], with 9.18.
